Laboratory results as given in ChEMBL document CHEMBL6127119 (J Med Chem, 2024).
In brackets after ≈: the same amount, converted by molar mass.

How the values were obtained:
Assay type in all cases: functional
Details in all cases: time 16-24 hrs
Klebsiella pneumoniae = assay: Antibacterial activity against Klebsiella pneumoniae clinical isolate incubated for 16 to 24 hrs by CLSI based broth microdilution method
Staphylococcus aureus [1] = assay: Antibacterial activity against vancomycin-intermediate Staphylococcus aureus incubated for 16 to 24 hrs by CLSI based broth microdilution method
Enterococcus faecium [2] = assay: Antibacterial activity against vancomycin-resistant Enterococcus faecium harboring VanM phenotype incubated for 16 to 24 hrs by CLSI based broth microdilution method
Enterococcus faecium [3] = assay: Antibacterial activity against vancomycin-resistant Enterococcus faecium harboring VanA phenotype incubated for 16 to 24 hrs by CLSI based broth microdilution method
Staphylococcus aureus [4] = assay: Antibacterial activity against methicillin-susceptible Staphylococcus aureus incubated for 16 to 24 hrs by CLSI based broth microdilution method
Enterococcus faecium [5] = assay: Antibacterial activity against vancomycin-resistant Enterococcus faecium harboring VanB phenotype incubated for 16 to 24 hrs by CLSI based broth microdilution method
Acinetobacter baumannii = assay: Antibacterial activity against Carbapenem-resistant Acinetobacter baumannii clinical isolate incubated for 16 to 24 hrs by CLSI based broth microdilution method
Escherichia coli = assay: Antibacterial activity against Escherichia coli AB1157 incubated for 16 to 24 hrs by CLSI based broth microdilution method
Pseudomonas aeruginosa = assay: Antibacterial activity against Pseudomonas aeruginosa PAO1 incubated for 16 to 24 hrs by CLSI based broth microdilution method

SMILES: CC(C)C[C@@H](N)C(=O)N[C@H]1C(=O)N[C@@H](CC(N)=O)C(=O)N[C@H]2C(=O)N[C@H]3C(=O)N[C@H](C(=O)N[C@H](C(=O)NCCNC(=O)[C@@H](N)CCCNC(=N)N)c4cc(O)cc(O)c4-c4cc3ccc4O)[C@H](O)c3ccc(c(Cl)c3)Oc3cc2cc(c3O[C@@H]2O[C@H](CO)[C@@H](O)[C@H](O)[C@H]2O[C@H]2C[C@](C)(N)[C@H](O)[C@H](C)O2)Oc2ccc(cc2Cl)[C@H]1O
- MIC (Klebsiella pneumoniae): > 128 µg/mL
- MIC (Staphylococcus aureus [1]): 2 µg/mL (≈ 1.22 µM)
- MIC (Enterococcus faecium [2]): 64 µg/mL (≈ 39.2 µM)
- MIC (Enterococcus faecium [3]): 16 µg/mL (≈ 9.79 µM)
- MIC (Staphylococcus aureus [4]): 1 µg/mL (≈ 0.612 µM)
- MIC (Enterococcus faecium [5]): 16 µg/mL (≈ 9.79 µM)
- MIC (Acinetobacter baumannii): 64 µg/mL (≈ 39.2 µM)
- MIC (Escherichia coli): 32 µg/mL (≈ 19.6 µM)
- MIC (Pseudomonas aeruginosa): 128 µg/mL (≈ 78.4 µM)

SMILES: CC(C)C[C@@H](N)C(=O)N[C@H]1C(=O)N[C@@H](CC(N)=O)C(=O)N[C@H]2C(=O)N[C@H]3C(=O)N[C@H](C(=O)N[C@H](C(=O)NCCCCNC(=N)N)c4cc(O)cc(O)c4-c4cc3ccc4O)[C@H](O)c3ccc(c(Cl)c3)Oc3cc2cc(c3O[C@@H]2O[C@H](CO)[C@@H](O)[C@H](O)[C@H]2O[C@H]2C[C@](C)(N)[C@H](O)[C@H](C)O2)Oc2ccc(cc2Cl)[C@H]1O
- MIC (Klebsiella pneumoniae): > 128 µg/mL
- MIC (Staphylococcus aureus [1]): 2 µg/mL (≈ 1.29 µM)
- MIC (Enterococcus faecium [2]): 64 µg/mL (≈ 41.4 µM)
- MIC (Enterococcus faecium [3]): 32 µg/mL (≈ 20.7 µM)
- MIC (Staphylococcus aureus [4]): 1 µg/mL (≈ 0.646 µM)
- MIC (Enterococcus faecium [5]): 32 µg/mL (≈ 20.7 µM)
- MIC (Acinetobacter baumannii): 128 µg/mL (≈ 82.7 µM)
- MIC (Escherichia coli): 8 µg/mL (≈ 5.17 µM)
- MIC (Pseudomonas aeruginosa): 128 µg/mL (≈ 82.7 µM)

SMILES: CC(C)C[C@@H](N)C(=O)N[C@H]1C(=O)N[C@@H](CC(N)=O)C(=O)N[C@H]2C(=O)N[C@H]3C(=O)N[C@H](C(=O)N[C@H](C(=O)NCCNC(=N)N)c4cc(O)cc(O)c4-c4cc3ccc4O)[C@H](O)c3ccc(c(Cl)c3)Oc3cc2cc(c3O[C@@H]2O[C@H](CO)[C@@H](O)[C@H](O)[C@H]2O[C@H]2C[C@](C)(N)[C@H](O)[C@H](C)O2)Oc2ccc(cc2Cl)[C@H]1O
- MIC (Klebsiella pneumoniae): > 128 µg/mL
- MIC (Staphylococcus aureus [1]): 2 µg/mL (≈ 1.32 µM)
- MIC (Enterococcus faecium [2]): 32 µg/mL (≈ 21.1 µM)
- MIC (Enterococcus faecium [3]): 32 µg/mL (≈ 21.1 µM)
- MIC (Staphylococcus aureus [4]): 0.5 µg/mL (≈ 0.329 µM)
- MIC (Enterococcus faecium [5]): 128 µg/mL (≈ 84.2 µM)
- MIC (Acinetobacter baumannii): 128 µg/mL (≈ 84.2 µM)
- MIC (Escherichia coli): 32 µg/mL (≈ 21.1 µM)
- MIC (Pseudomonas aeruginosa): > 128 µg/mL

SMILES: CC(=O)NCCCCNC(=O)[C@H]1NC(=O)[C@H]2NC(=O)[C@H](NC(=O)[C@@H]3NC(=O)[C@H](CC(N)=O)NC(=O)[C@H](NC(=O)[C@H](N)CC(C)C)[C@H](O)c4ccc(c(Cl)c4)Oc4cc3cc(c4O[C@@H]3O[C@H](CO)[C@@H](O)[C@H](O)[C@H]3O[C@H]3C[C@](C)(N)[C@H](O)[C@H](C)O3)Oc3ccc(cc3Cl)[C@H]2O)c2ccc(O)c(c2)-c2c(O)cc(O)cc21
- MIC (Klebsiella pneumoniae): > 128 µg/mL
- MIC (Staphylococcus aureus [1]): 8 µg/mL (≈ 5.17 µM)
- MIC (Enterococcus faecium [2]): 128 µg/mL (≈ 82.7 µM)
- MIC (Enterococcus faecium [3]): > 128 µg/mL
- MIC (Staphylococcus aureus [4]): 4 µg/mL (≈ 2.58 µM)
- MIC (Enterococcus faecium [5]): > 128 µg/mL
- MIC (Acinetobacter baumannii): 128 µg/mL (≈ 82.7 µM)
- MIC (Escherichia coli): 128 µg/mL (≈ 82.7 µM)
- MIC (Pseudomonas aeruginosa): 128 µg/mL (≈ 82.7 µM)

SMILES: CC(C)C[C@@H](N)C(=O)N[C@H]1C(=O)N[C@@H](CC(N)=O)C(=O)N[C@H]2C(=O)N[C@H]3C(=O)N[C@H](C(=O)N[C@H](C(=O)NCc4ccc(-c5ccc(CCN)cc5)cc4)c4cc(O)cc(O)c4-c4cc3ccc4O)[C@H](O)c3ccc(c(Cl)c3)Oc3cc2cc(c3O[C@@H]2O[C@H](CO)[C@@H](O)[C@H](O)[C@H]2O[C@H]2C[C@](C)(N)[C@H](O)[C@H](C)O2)Oc2ccc(cc2Cl)[C@H]1O
- MIC (Klebsiella pneumoniae): > 128 µg/mL
- MIC (Staphylococcus aureus [1]): 1 µg/mL (≈ 0.608 µM)
- MIC (Enterococcus faecium [2]): 16 µg/mL (≈ 9.74 µM)
- MIC (Enterococcus faecium [3]): 4 µg/mL (≈ 2.43 µM)
- MIC (Staphylococcus aureus [4]): 0.25 µg/mL (≈ 0.152 µM)
- MIC (Enterococcus faecium [5]): 8 µg/mL (≈ 4.87 µM)
- MIC (Acinetobacter baumannii): > 128 µg/mL
- MIC (Escherichia coli): 16 µg/mL (≈ 9.74 µM)
- MIC (Pseudomonas aeruginosa): > 128 µg/mL
